pIC50: −log10 of the molar value.
Molecular target: Cannabinoid receptor 1 (Homo sapiens, UniProt P21554)
Test: Allosteric antagonist activity at human CB1 receptor expressed in CHO-RD-HGA16 cells overexpressing Galpha16 assessed as inhibition of CP55940-stimulated calcium mobilization preincubated for 15 mins followed by agonist addition and measured every 1 sec for 90 secs by Calcium-3 dye based FLIPR assay

Cannabinoid receptor 1, sequence (P21554 whole entry): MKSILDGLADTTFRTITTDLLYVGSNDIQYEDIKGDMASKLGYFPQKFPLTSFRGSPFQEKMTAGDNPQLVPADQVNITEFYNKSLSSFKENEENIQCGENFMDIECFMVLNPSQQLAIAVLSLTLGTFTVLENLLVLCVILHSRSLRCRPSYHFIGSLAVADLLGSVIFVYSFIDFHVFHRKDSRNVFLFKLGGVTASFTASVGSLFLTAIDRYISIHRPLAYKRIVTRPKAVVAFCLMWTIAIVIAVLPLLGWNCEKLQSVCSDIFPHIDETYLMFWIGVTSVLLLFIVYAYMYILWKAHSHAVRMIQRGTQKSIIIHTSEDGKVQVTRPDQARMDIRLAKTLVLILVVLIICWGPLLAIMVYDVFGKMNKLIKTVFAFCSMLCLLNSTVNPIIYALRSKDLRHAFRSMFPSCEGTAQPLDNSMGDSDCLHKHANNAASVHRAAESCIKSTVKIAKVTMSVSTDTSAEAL

pIC50: 5.60
Structure (SMILES): O=C(NC[C@H]1C[C@@H]1c1ccccc1)Nc1ccc(Cl)cc1

From BindingDB's records for doi:10.1016/j.bmc.2021.116215 (Research Triangle Institute, 2021)
